Values joined by “and” are separate entries in the source; they are usually repeats but may differ in a detail not shown here. Equal values may be shown once. Inconclusive results and toxic doses are left out.

Consider 17 compounds from PubChem BioAssay AID200 (DTP/NCI, 2004).

The subject of this assay is B6C3F1 mice, B16 melanoma ip, median survival T/C. Description: NCI In Vivo Anticancer Drug Screen. Data for tumor model B16 Melanoma (intraperitoneal) in B6C3F1 mice. The settings on record: endpoint: median survival time, schedule: Q01DX009 (ip), higher = longer survival. Summed up: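 Transplantable tumor in mice; treated vs vehicle control groups; survival or tumor size measured; value = T/C ratio.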

[1] abbreviates: dose: 12.5 mg/kg/injection, vehicle: saline with Tween-80.
Where [2] appears, read: dose: 25.0 mg/kg/injection, vehicle: saline with Tween-80.
The mark [3] stands for this setting: dose: 50.0 mg/kg/injection, vehicle: saline with Tween-80.
Setting [4] is: dose: 6.25 mg/kg/injection, vehicle: Klucel (hydroxypropylcellulose) (HPC).
Where [5] appears, read: dose: 12.5 mg/kg/injection, vehicle: Klucel (hydroxypropylcellulose) (HPC).
The mark [6] stands for this setting: dose: 100.0 mg/kg/injection, vehicle: saline with Tween-80.
[7] abbreviates: dose: 200.0 mg/kg/injection, vehicle: saline with Tween-80.
Where [8] appears, read: dose: 400.0 mg/kg/injection, vehicle: saline with Tween-80.
The mark [9] stands for this setting: dose: 10.0 mg/kg/injection, vehicle: saline.
[10] abbreviates: dose: 20.0 mg/kg/injection, vehicle: saline.

In the case of `CN(C)N=Nc1cccc2c1N(C)c1ccc(F)cc1S2`, the T/C (dose: 6.25 mg/kg/injection, vehicle: other) was 103 % of control; the T/C (dose: 12.5 mg/kg/injection, vehicle: other) is 100 % of control; the T/C (dose: 25.0 mg/kg/injection, vehicle: other) is 108 % of control; the T/C (dose: 50.0 mg/kg/injection, vehicle: other) was 95 % of control; the T/C (dose: 100.0 mg/kg/injection, vehicle: other) was 102 % of control.

As for `Cc1c2cc[n+](CCO)cc2c(C)c2c1[nH]c1ccc(O)cc12`, the T/C reads like this: (dose: 0.31 mg/kg/injection, vehicle: saline) 113 % of control; (dose: 0.62 mg/kg/injection, vehicle: saline) 91 % of control.

Regarding `COc1c2occc2c(N=NN(C)C)c2ccc(=O)oc12`, the T/C was 98 % of control (dose: 6.25 mg/kg/injection, vehicle: saline with Tween-80); 99 % of control under setting [1]; 104 % of control under setting [2]; 107 % of control under setting [3].

On to `C=C(OP(=O)(OC)OC)Sc1ccccc1C`, for which the T/C was 94 % of control (dose: 0.06 mg/kg/injection, vehicle: Klucel (hydroxypropylcellulose) (HPC)); 102 % of control (dose: 0.12 mg/kg/injection, vehicle: Klucel (hydroxypropylcellulose) (HPC)); 104 % of control (dose: 0.25 mg/kg/injection, vehicle: Klucel (hydroxypropylcellulose) (HPC)); 121 % of control (dose: 0.38 mg/kg/injection, vehicle: Klucel (hydroxypropylcellulose) (HPC)); 100 % of control (dose: 0.5 mg/kg/injection, vehicle: Klucel (hydroxypropylcellulose) (HPC)); 107 % of control (dose: 0.75 mg/kg/injection, vehicle: Klucel (hydroxypropylcellulose) (HPC)).

As to `NC(CC(=O)CCl)C(=O)O` (stereo unspecified), the T/C was 106 % of control under setting [4] and 101 % of control under setting [5].

Consider `CC(C)C(NC(=O)OCC1c2ccccc2-c2ccccc21)C(=O)O` (stereo unspecified), for which the T/C is 91 % of control (dose: 100.0 mg/kg/injection, vehicle: Klucel (hydroxypropylcellulose) (HPC)) and 91 % of control (dose: 200.0 mg/kg/injection, vehicle: Klucel (hydroxypropylcellulose) (HPC)).

For `COC1/C=C/O[C@@]2(C)Oc3c(C)c(O)c4c(O)c(cc(O)c4c3C2=O)NC(=O)/C(C)=C\C=C\[C@H](C)C(O)[C@@H](C)[C@@H](O)[C@@H](C)[C@H](OC(C)=O)[C@@H]1C` (stereo partly specified), the T/C reads like this: under setting [1], 95 % of control; under setting [2], 97 % of control; under setting [3], 93 % of control; under setting [6], 95 % of control.

As to `O=C/C=C/c1cccc([N+](=O)[O-])c1`, the T/C was 107 % of control under setting [2], 116 % of control under setting [3], 118 % of control under setting [6] and 124 % of control under setting [7].

With `COP12(OCCO1)SC(C(F)(F)F)=C(C(F)(F)F)S2`, the T/C is 100 % of control under setting [1], 96 % of control under setting [2] and 104 % of control under setting [3].

As for `S=c1[nH]cc2cnccn12`, the T/C runs as follows: under setting [1], 94 % of control and 95 % of control; under setting [2], 93 % of control and 98 % of control; under setting [3], 93 % of control and 96 % of control; under setting [6], 97 % of control and 100 % of control; under setting [7], 91 % of control and 92 % of control; under setting [8], 97 % of control.

For the compound `O=C(O)C1CSCN1` (stereo unspecified), the T/C (dose: 0.39 mg/kg/injection, vehicle: Klucel (hydroxypropylcellulose) (HPC)) was 95 % of control; the T/C (dose: 0.78 mg/kg/injection, vehicle: Klucel (hydroxypropylcellulose) (HPC)) is 99 % of control; the T/C (dose: 1.56 mg/kg/injection, vehicle: Klucel (hydroxypropylcellulose) (HPC)) is 97 % of control; the T/C (dose: 1.56 mg/kg/injection, vehicle: saline) was 96 % of control; the T/C (dose: 3.12 mg/kg/injection, vehicle: Klucel (hydroxypropylcellulose) (HPC)) was 86 % of control; the T/C (dose: 3.12 mg/kg/injection, vehicle: saline) is 86 % of control. In addition, the T/C reads like this: under setting [4], 93 % of control; (dose: 6.25 mg/kg/injection, vehicle: saline) 90 % of control and 107 % of control; under setting [5], 87 % of control; (dose: 12.5 mg/kg/injection, vehicle: saline) 116 % of control and 98 % of control and 102 % of control; (dose: 25.0 mg/kg/injection, vehicle: saline) 117 % of control and 104 % of control; (dose: 50.0 mg/kg/injection, vehicle: saline) 110 % of control and 121 % of control. Moreover, the T/C (dose: 100.0 mg/kg/injection, vehicle: saline) was 112 % of control and 101 % of control.

Regarding `COc1cccc2c1C(=O)c1c(O)c3c(c(O)c1C2=O)C[C@@](O)(C(=O)CO)C[C@@H]3OC1CC(N)CC(C)O1` (stereo partly specified), the T/C by setting is: (dose: 0.18 mg/kg/injection, vehicle: water) 174 % of control; (dose: 0.37 mg/kg/injection, vehicle: water) 231 % of control; (dose: 0.38 mg/kg/injection, vehicle: water) 175 % of control; (dose: 0.75 mg/kg/injection, vehicle: water) 187 % of control and 238 % of control; (dose: 1.5 mg/kg/injection, vehicle: water) 181 % of control and 187 % of control.

Turning to `COC1(OC)C2C=CC1CC2`, the T/C is, setting by setting: under setting [1], 108 % of control and 98 % of control; under setting [2], 101 % of control; under setting [3], 113 % of control and 102 % of control; under setting [6], 114 % of control and 100 % of control; under setting [7], 100 % of control and 102 % of control; under setting [8], 98 % of control.

For `NC1C(O)C(O)C(Nc2ncnc3nc[nH]c23)OC1C(O)CO` (stereo unspecified), the T/C is, setting by setting: under setting [9], 99 % of control; under setting [10], 96 % of control; (dose: 40.0 mg/kg/injection, vehicle: saline) 94 % of control; (dose: 80.0 mg/kg/injection, vehicle: saline) 106 % of control.

As to `O=C1c2ccccc2CCC1(Br)Br`, the T/C is, setting by setting: (dose: 2.5 mg/kg/injection, vehicle: Klucel (hydroxypropylcellulose) (HPC)) 107 % of control; (dose: 10.0 mg/kg/injection, vehicle: Klucel (hydroxypropylcellulose) (HPC)) 90 % of control.

Consider `O=C(O)COc1ccc(-c2ccc(Br)cc2)cc1`, for which the T/C by setting is: under setting [2], 95 % of control; under setting [3], 98 % of control; under setting [6], 87 % of control; under setting [7], 96 % of control; under setting [8], 94 % of control.

`c1ccc(-c2nn(-c3ccccc3)[n+](-c3ccccc3-c3ccccc3)n2)cc1`: the T/C (dose: 5.0 mg/kg/injection, vehicle: saline) was 108 % of control; the T/C under setting [9] was 99 % of control; the T/C under setting [10] was 101 % of control.
